# Reference: patent US8962686B2 (priority 2010, dated 2015)
# Entries after “also recorded” stand apart in the source; their conditions may differ. Like-named read-outs stand apart in the source and are kept apart here.
# Columns and labels:
# [1] = test system: elevated intraocular pressure from steroid-induced IOP rise
# Protocol: On day 56 when Phase II of the experiment started, topical sodium phenylbutyrate (1 mM), instead of balanced salt solution, was applied to the left eyes of 5 rabbits (FIG. 3).
# [2] = test system: steroid-induced IOP rise
# Protocol: Eight rabbits were studied in this experiment. All their left eyes received Dex+BSS 5 times a day, from day 0 to day 60, the day when the experiment ended (squares line for both Phase I and Phase II). […] The right eyes of 3 randomly-chosen rabbits were treated with Dex+PB (sodium phenylbutyrate, 0.5 mM) eye drops 5 times a day, from day 0 to day 42. […] On day 43, the treatment of the right eyes of the 3 rabbits changed from Dex+PB to topical Dex+BSS. Still, Dex+BSS eye drops were applied 5 times a day, until day 60 when the experiment ended (broken brown line in Phase II).
# [3] = test system: steroid-induced intraocular pressure (IOP) rise; conditions: for percentage of mean reduction in IOP rise: topical PB 1, 5 and 15 mM analyzed as one group, with Dex, vs Dex+BSS eye
# Protocol: To explore this hypothesis, trimethylamine N-oxide (TMAO) was tested out using the same steroid-induced glaucoma model in rabbits. […] Fourteen New Zealand albino rabbits (7-week-old male) were divided into 5 groups. The right eyes received topical dexamethasone four times a day followed by topical TMAO (2, 10, 50, 100 and 300 mM) four times a day whereas the left eyes received topical dexamethasone four times a day followed by balanced salt solution, a physiological saline that acted as a control, four times a day.
# Dexamethasone, a commonly used steroid was used in all our experiments. […] Herein, nine 7-week-old male New Zealand albino rabbits were randomly divided into 3 groups and each of them received Dexamethasone (Dex) (MaxiDex containing 0.1% Dex, Alcon) 5 times a day in both eyes. In addition, topical sodium phenylbutyrate (PB) (Triple Crown America/TriButyrate, Inc. Perkasie, Pa.) in concentrations of 1, 5 or 15 mM were applied to their right eyes 5 times a day and a balanced salt solution (BSS), a physiological saline that acted as a control, to their left eyes 5 times a day. Intraocular pressure (IOP) was measured twice a week at an interval of 3-4 days by a masked technician. […] Three time points (days 14, 37 and 53) were chosen for data analysis. […] The mean baseline intraocular pressure (IOP) was 11.5 mmHg for both eyes. The percentage of reduction in IOP rise by PB was defined as (“Mean IOP rise in eyes with Dex+BSS” minus “Mean IOP rise in eyes with Dex+PB”) divided by “Mean IOP rise in eyes with Dex+BSS”×100%.
# FIG. 2B charts show the longitudinal profiles of IOP measurements of individual rabbits receiving Dex+BSS (left eye, diamonds line) and Dex+PB (right eye, squares line) respectively.
# Fourteen 7-week-old male New Zealand albino rabbits received topical dexamethasone (Dex) (MaxiDex containing 0.1% Dex, Alcon) 4 times a day in both eyes.
# [4] = test system: trabecular meshwork extracellular matrix; conditions: 14 days
# Protocol: An experiment was conducted to determine whether sodium phenylbutyrate (PB) could reduce the amount of glycogen and collagen accumulated in the extracellular matrix of the trabecular meshwork. The extracellular protein and collagen substrate deposited on paraffin sections of TM aqueous outflow region were examined in Dex treated and Dex +PB treated rabbit eyes by special periodic acid-Schiff and Masson trichrome histochemical staining The rabbit eyes were paraffin-processed and serially sectioned at a thickness of 5 μm for histochemistry. Sections of (A) untreated control; (B) treated with Dex (0.1%) for 14 days and (C) treated with Dex (0.1%) +PB (0.5mM) for 14 days are shown.
# [5] = test system: rabbit eye
# Protocol: Adult male rabbits (n=13) received topical sodium phenylbutyrate (1 and 5 mM) 4 times a day in both eyes. […] The rabbit eyes were examined by an ophthalmologist on days 7 and 14 in which the rabbits were anesthetized with intramuscular injection of ketamine (75 mg/kg) and xylazine (7.5 mg/kg).
# [6] = test system: Y437H mutant myocilin transgene mice; conditions: oral administration; compared to untreated transgene mice; cited from earlier work
# [7] = test system: trabecular meshwork (TM) cells; conditions: for percentage of TM cell loss: 14 days
# Protocol: The cell density in the TM aqueous outflow region was examined using the Dex and Dex+PB treated rabbit eyes. […] The specimens were paraffin-processed and serially sectioned at a thickness of 5 μm for hematoxylin-eosin histochemistry. […] The number of cells in TM region was quantified and area was measured by Image J software (NIH, US). (D) The cell densities (mean±standard deviation) were compared among the control and treatment groups and P values were calculated by unpaired Student's t-test.
# [8] = test system: cultured human trabecular meshwork (TM) cells; assay: MTT cell viability/proliferation assay; conditions: PB 0.5 mM and 1 mM, 5 days
# Protocol: In these tests, cultured human TM cells (7000 cells/ml) were plated in each well in Dulbecco's Modified Eagle medium (DMEM) supplemented with 1000 mg/L glucose, 2% charcoal-stripped fetal bovine serum and antibiotics. They were treated with sodium phenylbutyrate (PB) (0.5, 1 and 5 mM), dexamethasone (Dex) (100 and 500 nM) and a combination of both for 5 days. Using the 3-(4,5-Dimethylthiazol-2-yl)-2,5-diphenyltetrazolium bromide dye (MTT) cell viability/proliferation assay (Invitrogen), the formazan intensity was measured with a multiplate reader at an excitation wavelength of 595 nm and an emission wavelength 610 nm. The mean signal intensity was expressed as a percentage and was compared to the untreated control among treatments.
# [9] = test system: trabecular meshwork (TM) tissues
# Protocol: The ultrastructural morphology of rabbit trabecular meshwork (TM) tissues was examined in untreated control eyes, dexamethasone (Dex) (0.1%) treated eyes and Dex+PB (1 mM) treated eyes by transmission electron microscopy. […] The normal rabbit trabecular meshwork is shown in FIGS. 12A and B. It consists of bundles of fine fibers (elastic and collagen fibers) of the trabecular cells (FIG. 12A).
# [10] = topical 1 and 5 mM 4 times a day
molecule,measurement,setting,value
sodium phenylbutyrate,mean IOP level,"[1]; day 67, eyes treated with PB 1 mM throughout both phases",15.4 mmHg
same,IOP after treatment,"[1]; day 67, topical 1 mM from day 56 in left eyes previously on Dex+BSS (20.5 mmHg on day 56)",16.6 mmHg
same,reduction in IOP,"[1]; topical 1 mM, treatment period of 11 days (day 56 to day 67)",19%
same,mean IOP level after cessation of topical PB,"[2]; Phase II, day 43 to day 60",about 16.5 mmHg
same,increase in IOP after cessation of topical PB,"[2]; day 43 to day 60, Dex+BSS after Dex+PB 0.5 mM",less than 2 mmHg
same,IOP at end of experiment,"[2]; day 60, 18 days after cessation of PB",16.6 mmHg
same,duration of suppression of IOP rise after cessation of eyedrops,"[2]; topical PB 0.5 mM 5 times a day to day 42, then Dex+BSS",≤ 18 days
same,mean percentage of reduction in IOP increase,"[3]; day 14, PB 0.5 mM applied 1 time a day",13.2%
same,mean percentage of reduction in IOP increase,"[3]; day 14, PB 0.5 mM applied 2 times a day",54.4%
same,mean percentage of reduction in IOP increase,"[3]; day 14, PB 0.5 mM applied 4 times a day",57.9%
same,mean percentage of reduction in IOP increase,"[3]; day 14, PB 0.5 mM applied 5 times a day",74.9%
same,reduction in steroid-induced IOP rise,"[3]; day 14, other test doses (of 0.01, 0.1, 0.5, 1, 5, 15 mM), 5 times a day, strong responders",about 50%
same,percentage of mean reduction in IOP rise,"[3]; day 14, 5 times a day",45.0%
same,percentage of mean reduction in IOP rise,"[3]; day 37, 5 times a day",84.7%
same,percentage of mean reduction in IOP rise,"[3]; day 53, 5 times a day",50.0%
same,glycogen deposition in trabecular meshwork (periodic acid-Schiff),[4]; dexamethasone + sodium phenylbutyrate 1mM,greatly reduced
same,collagen deposit in trabecular meshwork (Masson trichrome),[4]; dexamethasone + sodium phenylbutyrate,Reduced collagen stain
same,adverse ocular or systemic effects,[5]; application to the rabbit eye,No adverse ocular or systemic effects
same,change in corneal endothelial cell density (specular microscopy),[5]; [10],did not cause any significant change
same,"slit lamp biomicroscopy with fluorescein staining, defects in conjunctiva or cornea",[5]; [10],did not reveal any defects
same,"systemic signs (diarrhea, paralysis, convulsions/seizures, bleeding, death)","[5]; topical 1 and 5 mM 4 times a day, both eyes, 7-day post-treatment study period","none of them exhibited diarrhea, paralysis, convulsions/seizures, bleeding and/or death"
same,"ocular surface diseases (hyperemia, swelling, inflammation, ulcers, bleeding)","[5]; topical 1 and 5 mM 4 times a day, examined days 7 and 14",No ocular surface (conjunctiva and cornea) diseases
same,effect on glaucoma phenotypes / elevated intraocular pressure,[6],normalization of elevated intraocular pressure
same,percentage of TM cell loss,[7]; Dex 0.1% + PB 0.02 mM,39%
same,percentage of TM cell loss,[7]; Dex 0.1% + PB 0.1 mM,31%
same,percentage of TM cell loss,[7]; Dex 0.1% + PB 0.5 mM,26%
same,cytotoxicity to trabecular meshwork cells (MTT),[8],not cytotoxic
same,"ultrastructure of trabecular meshwork (electron microscopy), deposition of electron dense materials",[9]; dexamethasone with concurrent topical 1 mM sodium phenylbutyrate for 48 days,deposition was not apparent
C[C@@H]1C[C@H]2[C@@H]3CCC4=CC(=O)C=C[C@]4(C)[C@@]3(F)[C@@H](O)C[C@]2(C)[C@@]1(O)C(=O)CO [dexamethasone],increase in intraocular pressure compared with baseline (day 0),"[3]; day 14, topical 0.1% Dex 4 times a day in both eyes",up to 6 mmHg
same,glycogen deposition in trabecular meshwork (periodic acid-Schiff),[4]; topical dexamethasone 0.1% alone,greater deposition of glycogen
same,collagen deposit in trabecular meshwork (Masson trichrome),"[4]; topical dexamethasone 0.1% alone, vs untreated control",substantially increased
same,reduction of cell density in TM region,"[7]; Dex 0.1% for 14 days, vs untreated control",53%
same,ultrastructure of trabecular meshwork (electron microscopy),[9]; topical 0.1% dexamethasone for 42 days,deposition of electron dense materials
"C[N+](C)(C)[O-] [TMAO, trimethylamine N-oxide]",effect on dexamethasone-induced IOP rise,"[3]; topical TMAO 2 to 300 mM 4 times a day with Dex, study period of 18 days",did not prevent; also recorded: did not prevent or treat
same,IOP difference between Dex+BSS and Dex+TMAO eyes,"[3]; topical TMAO 2 to 300 mM 4 times a day, 18 days",no significant difference
